# Laboratory results published in PMC8351955, “Targeting Mycobacterium tuberculosis response to environmental cues for the development of effective antitubercular drugs” (PLoS Biology, 2021).
# Where two headings read alike, the source gives them in different places.
# How the values were obtained:
# [1] = tested on: WT Mtb (Erdman) in primary murine BMDMs; experiment: Primary murine bone marrow-derived macrophage infection, CFU; type: cell-based, Mycobacterium tuberculosis; details: 10 μM; for CFU/ml in BMDMs, average: Fig 1I
# Method: C57BL/6J wild-type mice (Jackson Laboratories) were used for extraction of BMDMs. Cells were harvested and expanded in DMEM containing 10% FBS, 15% L-cell conditioned media, 2 mM L-glutamine, 1 mM sodium pyruvate, and penicillin/streptomycin as needed in a 37°C incubator in a 5% CO2 atmosphere. […] Macrophages were lysed with water containing 0.01% sodium dodecyl sulfate and a dilution series of the samples plated on 7H10 agar for CFU determination.
# [2] = tested on: Mtb growth in J774 macrophage-like cells; experiment: J774 infection in 96-well plates, mKO fluorescence 6 days post-infection; type: cell-based, Mycobacterium tuberculosis; details: 6 days post-infection
# Method: For J774 infection in 96-well plates, 1.8 × 10^5 J774 cells were seeded per well in 180 μl of J774 infection media 1 day prior to infection. On the day of the assay, log-phase Mtb constitutively expressing mKO were pelleted and resuspended in 1 ml basal uptake buffer, passed 6× through a tuberculin syringe with a 25 G × 5/8″ needle, then resuspended in J774 infection media to a final OD600 = 0.2. Media was removed from 96-well plate containing the J774 cells, with 140 μl of fresh J774 infection media added back to each well. A volume of 40 μl of the Mtb suspension at OD600 = 0.2 was added to each well, followed by addition of appropriate concentration of compound or DMSO in a 20-μl final volume in J774 infection media (compound final concentration 10 μM, rifampicin final concentration 5 μM, DMSO final concentration 0.1%/well). Bacterial mKO fluorescence was read immediately after infection using a Biotek Synergy Neo2 microplate reader (bottom read monochromator, excitation 543/10 nm, emission 565/10 nm), and again 6 days post-infection. Plates were kept in humidified ziplock bags in a 37°C, 5% CO2 incubator. mKO fluorescence in DMSO-treated control samples were defined as 100% growth, and fluorescence observed in treatment conditions calculated as a percentage from that set value.
# [3] = tested on: CDC1551(rv2390c′::GFP) reporter Mtb strain; experiment: microbe, parasite or virus in culture; details: Mycobacterium tuberculosis, 216 h
# [4] = tested on: CDC1551(rv1405c′::GFP) reporter Mtb strain; experiment: microbe, parasite or virus in culture; type: cell-based, Mycobacterium tuberculosis; details: for NPA - rv1405c'::GFP, average: Fig 1D
# [5] = tested on: Mtb growth in J774 murine macrophage-like cells; experiment: microbe, parasite or virus in culture; type: cell-based, Mycobacterium tuberculosis; details: for NPI (Mtb growth in J774 cells), average: Fig 1F
# [6] = tested on: CDC1551(rv2390c′::GFP) reporter Mtb strain; details: pH 7
# [7] = tested on: CDC1551(rv2390c′::GFP) reporter Mtb strain, response to high [Cl−]; experiment: microbe, parasite or virus in culture; type: cell-based, Mycobacterium tuberculosis
# [8] = Pharmacokinetic assay, single oral dose in CD-1 mice; type: in vivo; details: female, mouse, plasma; CD-1 mice, single 5 mg/kg po dose; read-out: plasma AUC0–5h
# Method: Blood samples were collected in K2EDTA-coated tubes predose, 0.5, 1, 3, and 5 hours post-dose, placed on ice, and centrifuged to recover plasma. The recovered plasma was kept at −80°C as needed prior to analysis, which was performed as previously described. In brief, a Sciex Applied Biosystems Qtrap 4000 triple-quadrupole mass spectrometer coupled to an Agilent 1260 HPLC system was used for HPLC coupled to tandem mass spectrometry (LC–MS/MS) quantitative analysis of the samples, with chromatography attained using an Agilent Zorbax SB-C8 column (2.1 × 30 mm; particle size, 3.5 μm) and a reverse-phase gradient elution. The aqueous mobile phase consisted of Milli-Q deionized water with 0.1% formic acid (A), while the organic mobile phase was 0.1% formic acid in acetonitrile (B). The gradient setup was as follows: 5% to 90% B over 2 minutes, 1 minute at 90% B, then an immediate drop to 5% B and an additional 1 minute at 5% B. Quantification of molecules was carried out via multiple reaction monitoring of parent/daughter transitions in electrospray positive ionization mode, and sample analyses accepted if quality control and standard samples had concentrations within 20% of the nominal concentration. Preparation of compounds for generation of standard curves and quality control spiking solutions were performed as previously described. Data were processed using Analyst software (Version 1.6.2; Applied Biosystems Sciex, Framingham, MA).
# [9] = Kinetic aqueous solubility; type: physicochemical; details: pH 7.4 phosphate buffered saline; read-out: kinetic aqueous solubility (S)
# Method: (§1) Assays examining mouse and human liver microsomal stability, kinetic aqueous solubility, mouse and human plasma protein binding and stability, and human cytochrome P450 inhibition characteristics of the compounds were run by BioDuro (San Diego, CA), using standard protocols as previously described [37]. hERG inhibition assays were also performed by BioDuro.
# [10] = Mouse liver microsomal stability; type: in vitro ADME; details: mouse liver microsomes; read-out: half-life (t1/2) in mouse liver microsomes
# Method: as §1
smiles,measurement,setting,value
"O=C(c1cnc2ccccn12)N1CCCC(CCc2cccc(C(F)(F)F)c2)C1 (stereo not shown) [C5, FC(F)(F)C1=CC=CC(CCC2CCCN(C2)C(=O)C2=CN=C3C=CC=CN23)=C1]",Effect on bacterial load / Mtb growth in primary murine BMDMs,"[1]; 8-day infection time course, vs DMSO",significant decrease in bacterial load
same,"CFU/ml in BMDMs, average",[1]; day 2,152000 CFU/ml
same,"CFU/ml in BMDMs, average",[1]; day 4,191000 CFU/ml
same,"CFU/ml in BMDMs, average",[1]; day 6,264500 CFU/ml
same,"CFU/ml in BMDMs, average",[1]; day 8,318000 CFU/ml
same,"% growth of Mtb in J774 cells, average","[2]; 10 μM compound, DMSO = 100%, Fig 1H",37.9568%
same,Inhibition of Mtb growth in J774 cells,[2]; 10 μM,Mtb growth inhibition
same,fold induction at 10 µM,"[3]; pH 7, read-out: Fold induction of rv2390c′::GFP reporter, average",6.34
same,fold induction at 10 µM,"[3]; read-out: Fold induction of rv2390c′::GFP reporter, average",5.92
same,"NPA - rv1405c'::GFP, average",[4]; 0.0390625 µM,91.05%
same,"NPA - rv1405c'::GFP, average",[4]; 0.078125 µM,91.6%
same,"NPA - rv1405c'::GFP, average",[4]; 0.15625 µM,98.45%
same,"NPA - rv1405c'::GFP, average",[4]; 0.3125 µM,118%
same,"NPA - rv1405c'::GFP, average",[4]; 0.625 µM,125%
same,"NPA - rv1405c'::GFP, average",[4]; 1.25 µM,130%
same,"NPA - rv1405c'::GFP, average",[4]; 2.5 µM,114.5%
same,"NPA - rv1405c'::GFP, average",[4]; 5 µM,132.5%
same,"NPA - rv1405c'::GFP, average",[4]; 20 µM,145.5%
same,activity at 10 µM,"[4]; Mycobacterium tuberculosis, read-out: rv1405c'::GFP secondary assay NPA% at 10 µM compound",135 ± 14.8%
same,activity at 20 µM,"[4]; Mycobacterium tuberculosis, read-out: rv1405c'::GFP secondary assay NPA% at 20 µM compound",147 ± 7%
same,"NPI (Mtb growth in J774 cells), average","[5]; 0.078125 µM, 5 µM rifampicin = 100% inhibition",-6.175%
same,"NPI (Mtb growth in J774 cells), average",[5]; 0.15625 µM,0.5445%
same,"NPI (Mtb growth in J774 cells), average",[5]; 0.3125 µM,-0.235%
same,"NPI (Mtb growth in J774 cells), average",[5]; 0.625 µM,9.79%
same,"NPI (Mtb growth in J774 cells), average",[5]; 1.25 µM,32.35%
same,"NPI (Mtb growth in J774 cells), average",[5]; 2.5 µM,39.55%
same,"NPI (Mtb growth in J774 cells), average",[5]; 5 µM,48.4%
same,"NPI (Mtb growth in J774 cells), average",[5]; 10 µM,50.85%
same,"NPI (Mtb growth in J774 cells), average",[5]; 20 µM,55%
same,inhibition at 10 µM,"[5]; Mycobacterium tuberculosis, J774, 144 h, read-out: J774 tertiary assay % inhibition compared to Rif at 10 µM compound",50.9 ± 3.2%
same,inhibition at 20 µM,"[5]; Mycobacterium tuberculosis, J774, 144 h, read-out: J774 tertiary assay % inhibition compared to Rif at 20 µM compound",55 ± 5.8%
same,Ability to increase rv2390c′::GFP reporter signal in high [Cl−],[6],increased rv2390c′::GFP reporter signal
same,"NPA - rv2390c'::GFP, average","[7]; 0.0390625 µM, Fig 1C",99.0333%
same,"NPA - rv2390c'::GFP, average","[7]; 0.078125 µM, Fig 1C",96.3333%
same,"NPA - rv2390c'::GFP, average","[7]; 0.15625 µM, Fig 1C",99.1%
same,"NPA - rv2390c'::GFP, average","[7]; 0.3125 µM, Fig 1C",113.667%
same,"NPA - rv2390c'::GFP, average","[7]; 0.625 µM, Fig 1C",116.667%
same,"NPA - rv2390c'::GFP, average","[7]; 1.25 µM, Fig 1C",131.667%
same,"NPA - rv2390c'::GFP, average","[7]; 2.5 µM, Fig 1C",132.333%
same,"NPA - rv2390c'::GFP, average","[7]; 5 µM, Fig 1C",137%
same,"NPA - rv2390c'::GFP, average","[7]; 10 µM, Fig 1C",131.333%
same,"NPA - rv2390c'::GFP, average","[7]; 20 µM, Fig 1C",142.333%
same,activity at 10 µM,"[7]; Mycobacterium tuberculosis, 144 h, pH 6.4, […], DMSO positive control = 100%, read-out: Primary screen rv2390c'::GFP NPA%",182%
same,activity at 10 µM,"[7]; Mycobacterium tuberculosis, 144 h, 10 µM, pH 6.4, 250 mM NaCl, 6 days, read-out: rv2390c'::GFP validation assay NPA% at 10 µM compound",131 ± 9.8%
same,activity at 20 µM,"[7]; Mycobacterium tuberculosis, 144 h, 20 µM, pH 6.4, 250 mM NaCl, 6 days, read-out: rv2390c'::GFP validation assay NPA% at 20 µM compound",142 ± 4.2%
same,AC50,"[7]; Mycobacterium tuberculosis, 144 h, pH 6.4, 250 mM NaCl, 6 days, Fig 1C, read-out: AC50 (activatory concentration, 50%), rv2390c′::GFP",500 nM
same,AUC(0-t),[8],42 ng·h/mL
same,solubility kinetic,[9],6.67 µM
same,half-life,[10],4.98 min
